# According to patent publication US4925797A, “Process for the decomposition of acrylamide” (Imperial Chemical Industries plc, priority 1986, dated 1990):
# System: Methylophilus methylotrophus amidase (acylamide amido hydrolase E.C. No. 3-5-1-4)
# Assay: Methylophilus methylotrophus amidase properties (Km)
# Assay type: biochemical
# Conditions: amidase induced in Methylophilus methylotrophus; substrate as named
row,SMILES,Km [mM]
1,CC(N)=O [Acetamide],0.2
2,C=CC(N)=O [Acrylamide],10
